Test results: patent publication US20230090255A1, “MAGL INHIBITOR, PREPARATION METHOD THEREFOR AND USE THEREOF” (LUNAN PHARMACEUTICAL GROUP CORPORATION, priority 2019, published 2023)
Marks after values point to notes of the source that are not given here.

Test system: reserpine-induced mice depression
Experiment: Reserpine-induced mice depression
Format: in vivo, ICR mouse
Parameters: Awakening / Finger contact / Head touch / Fear / Autonomic activity / Eyelid closure / Upright: scale not given here
Procedure: • Species: ICR mouse • Microbiological level: SPF • Quantity and sex of the animals purchased: male: 75; female: 75 • Quantity and sex of the animals used: male: 75; female: 75 • Body weight: 13-18 g when accepted
Group design: there were 50 pieces for each batch of animals and 3 batches in total; each batch of animals were randomly divided into 5 groups; low, middle and high-dose groups of the samples for test, blank control group and model group; a sample for test was tested per batch.
3.1 Animals were administrated via subcutaneous injection per day with doses of 4, 8 and 16 mg/kg for 6 d in total. 2 h later after the final administration, each animal was subcutaneously injected with 4 mg/kg reserpine except the blank control group; afterwards, indicators, such as, awakening, finger contact, fear, head touch, autonomic activity, upright and eyelid closure were determined 2 h later.
Data statistics and analysis were completed via a computer by SPSS 17.0 software and office 2016, and data statistics was inspected by Kruskal-Wallis. If the Kruskal-Wallis inspection result is significant ((P<0.05), multiple comparison inspection is further performed by a Mann-Whitney U nonparametric test method.

[1] = high dose 16 mg/kg sc 6 d, 2 h after reserpine 4 mg/kg
[2] = low dose 4 mg/kg sc 6 d, 2 h after reserpine 4 mg/kg
[3] = middle dose 8 mg/kg sc 6 d, 2 h after reserpine 4 mg/kg

**Q.** O=C(Nc1cccc(Cl)c1)C1CCN(C(=O)c2cccc(O)c2)CC1 [MAGLZ-II-11] was tested. Which “effect on reserpine-induced depression (conclusion)” value (4, 8 and 16 mg/kg sc 6 d) did it give?
**A.** The value was “has a certain effect”.

**Q.** What about the Autonomic activity [1] of the same molecule?
**A.** Its Autonomic activity is 1.8±1.66* *.

**Q.** What about the Awakening [1] of the same molecule?
**A.** Its Awakening is 3.2±1.33.

**Q.** And the Eyelid closure [1]?
**A.** The Eyelid closure was 2±1.26.

**Q.** What about the Fear [1] of the same molecule?
**A.** The Fear was 0.2±0.60.

**Q.** And the Finger contact [1]?
**A.** The Finger contact was 2±1.79.

**Q.** What about the Head touch [1] of the same molecule?
**A.** The Head touch was 2.6±1.56.

**Q.** And the Upright [1]?
**A.** The Upright was 1±1.61* *.

**Q.** And the Autonomic activity [2]?
**A.** The Autonomic activity was 0.8±1.60.

**Q.** What about the Awakening [2] of the same molecule?
**A.** Its Awakening is 3±1.61.

**Q.** And the Eyelid closure [2]?
**A.** Its Eyelid closure is 1.2±0.98.

**Q.** And the Fear [2]?
**A.** Its Fear is 0±0.

**Q.** What about the Finger contact [2] of the same molecule?
**A.** The Finger contact was 1.6±1.50.

**Q.** And the Head touch [2]?
**A.** The Head touch was 1±1.34.

**Q.** What about the Autonomic activity [3] of the same molecule?
**A.** Its Autonomic activity is 0.8±1.60.

**Q.** What about the Awakening [3] of the same molecule?
**A.** The Awakening was 2.6±1.56.

**Q.** And the Eyelid closure [3]?
**A.** Its Eyelid closure is 1.4±1.28.

**Q.** What about the Fear [3] of the same molecule?
**A.** Its Fear is 0±0.

**Q.** And the Finger contact [3]?
**A.** The Finger contact was 1.8±1.66.

**Q.** And the Head touch [3]?
**A.** The Head touch was 1.8±1.40.
